Drawing on patent US20050250819A1 (priority 2004, published 2005), this text covers IC50 for 27 molecules.

By IC50 is commonly meant the point on the concentration scale where inhibition reaches its midpoint.

The test system of one experiment is Type III protein secretion of the chimeric SopE‘-’Bla polypeptide (SPI1 type III protein secretion system). The experiment can be described thus: Primary assay: Type III protein secretion of the chimeric SopE'-'Bla polypeptide by Salmonella enterica. The experiment is classed as cell-based. The note with it: read-out: SopE IC50(μM). A digest of the protocol:
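Salmonella enterica grown under SPI1-inducing conditions expressed a SopE‘-’Bla fusion, with TEM-1 β-lactamase lacking its signal peptide, with or without test compounds. Nitrocefin added to the cultures was hydrolysed only by the secreted fusion, so the colorimetric signal reports type III secretion, and inhibitors lower it.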
`O=C(N[C@@H](Cc1ccc(Cl)cc1)C(=O)O)/C(=C\c1cccc(C(F)(F)F)c1)NC(=O)c1ccc(Oc2ccccc2)cc1` [Compound 47, (S)-3-(4-Chlorophenyl)-2-[2-(4-phenoxybenzoylamino)-3-(3-trifluoromethyl-phenyl)acryloylamino]propionic acid]: the IC50 stood at 12.4 µM.

A further experiment deals with Type III-dependent secretion of SipB (SPI1 type III protein secretion system). The experiment is described as follows: Secondary assay: Type III-dependent protein secretion of the SipB polypeptide by S. enterica. The experiment is classed as cell-based. Particulars: Salmonella enterica, read-out: SipB IC50(μM). Here is the method: Secondary assay: Type III-dependent protein secretion of the SipB polypeptide by S. enterica. The SipB protein of S. enterica is another effector of the SPI1 type III protein secretion system from S. enterica. In this cell-based procedure, the Type III-dependent secretion of SipB from the bacterial cytoplasm to the extracellular medium was measured through its reactivity with a cognate mouse monoclonal.
Salmonella enterica cells growing either in the presence or in the absence of inhibitors are induced for the production of SipB. Following an established period of growth the cells are sedimented and the amount of SipB present in the supernatant is quantified with a scanning imager following application of immunoblot techniques. Detection may employ an anti-SipB mouse monoclonal antibody (e.g., obtained from Jorge Galan, SUNY at Stony Brook, N.Y.) followed by treatment with commercially available sheep anti-mouse polyclonal antibody conjugated with horseradish peroxidase. Thereafter the membrane is treated with a peroxidase chemiluminescent substrate and exposed to film for an appropriate exposure time. Inhibition may be measured relative to untreated controls.
With `O=C(N[C@H](CO)CSCc1ccccc1)/C(=C\c1ccc(-c2ccccc2)cc1)NC(=O)c1ccc(C(F)(F)F)cc1` [Compound 14], the IC50 is 77.3 µM.

For the next experiment, the system named is Type III-dependent secretion of ExoU by P. aeruginosa PA103. The experiment is described as follows: Tertiary assay: Type III-dependent secretion of ExoU by P. aeruginosa PA103. The experiment is classed as cell-based. The note with it: Pseudomonas aeruginosa, ExoU secreted into extracellular medium. An excerpt: Tertiary assay: inhibition of Type III protein secretion of effectors from a Pseudomonas aeruginosa system. Type III protein secretion is used by P. aeruginosa to secrete several essential virulence determinants. One effector of the type III protein secretion system of P. aeruginosa PA103 is the virulence determinants ExoU.
The amount of Type III-dependent secretion of ExoU by P. aeruginosa PA103 can be determined in a cell-based assay by quantification of the 73.9 kDa ExoU protein secreted into the extracellular medium. Such quantitation can be achieved by growing strain PA103 in a deferrated medium in the presence of nitrilotriacetic acid (an inducer of Type III protein secretion in P. aeruginosa) and either in the presence or absence of putative inhibitors. After a prolonged growth period, the cells are sedimented and the supernatants concentrated by ammonium sulfate precipitation. The proteins in the resuspended pellets are separated by electrophoresis on SDS-polyacrylamide gels. After staining gels with Colloidal Blue™, the 73.9 kDa ExoU band is quantitated by scanning through an imager. The effects of inhibitors on the intensity of the ExoU band may be measured relative to that of untreated controls.
Take `O=C(N[C@@H](Cc1ccc(Cl)cc1)C(=O)O)/C(=C\c1cccc(C(F)(F)F)c1)NC(=O)c1ccc(Oc2ccccc2)cc1` [Compound 47, (S)-3-(4-Chlorophenyl)-2-[2-(4-phenoxybenzoylamino)-3-(3-trifluoromethyl-phenyl)acryloylamino]propionic acid]: inhibition was half-maximal at 35.1 µM (IC50). Still for that read-out and setting: as for `CN(C(=O)/C(=C\c1cccc(C(F)(F)F)c1)NC(=O)c1ccc(-c2ccccc2)cc1)C(COCc1ccccc1)C(=O)O` (stereo not shown) [Compound 53, 3-Benzyloxy-2-{[2-[(biphenyl-4-carbonyl)amino]-3-(3-trifluoromethylphenyl)-acryloyl]methylamino}propionic acid], the figure is 46 µM; as for `O=C(NC(Cc1ccc(F)cc1)C(=O)O)/C(=C\c1ccc(-c2ccccc2)cc1)NC(=O)c1ccc(C(F)(F)F)cc1` (stereo not shown) [Compound 54, 2-[3-Biphenyl-4-yl-2-(4-trifluoromethylbenzoylamino)acryloylamino]-3-(4-fluoro-phenyl)propionic acid], 19 µM. On the same count and under the same terms, the result for `O=C(NC(Cc1ccc(Cl)cc1)C(=O)O)/C(=C\c1ccc(-c2ccccc2)cc1)NC(=O)c1ccc(C(F)(F)F)cc1` (stereo not shown) [Compound 55, 2-[3-Biphenyl-4-yl-2-(4-trifluoromethylbenzoylamino)acryloylamino]-3-(4-chloro-phenyl)propionic acid] reads 13 µM; that for `O=C(N[C@H](COCc1ccccc1)C(=O)O)/C(=C\c1ccc(Cl)c(Cl)c1)NC(=O)c1ccc(-c2ccccc2)cc1` [Compound 56, (R)-3-Benzyloxy-2-[2-[(biphenyl-4-carbonyl)amino]-3-(3,4-dichlorophenyl)-acryloylamino]propionic acid], 20.2 µM. Take `O=C(N[C@@H](CSCc1ccccc1)C(=O)O)/C(=C\c1ccc(Oc2ccc(F)cc2)cc1)NC(=O)c1ccc(C(F)(F)F)cc1` [Compound 57, (R)-3-Benzylsulfanyl-2-[3-[4-(4-fluorophenoxy)phenyl]-2-(4-trifluoromethyl-benzoylamino)acryloylamino]propionic acid]: the IC50 stood at 35 µM.

As to `O=C(N[C@@H](CSCc1ccccc1)C(=O)O)/C(=C\c1ccc(Oc2ccc(Cl)cc2)cc1)NC(=O)c1ccc(C(F)(F)F)cc1` [Compound 58, (R)-3-Benzylsulfanyl-2-[3-[4-(4-chlorophenoxy)phenyl]-2-(4-trifluoromethyl-benzoylamino)acryloylamino]propionic acid], the IC50 came out at 48.5 µM. Same read-out and setting: the result for `O=C(O)C[C@@H](CNC(=O)/C(=C\c1cccc(C(F)(F)F)c1)NC(=O)c1ccc(-c2ccccc2)cc1)c1ccc(Cl)cc1` [Compound 62, (R)-4-[2-[(Biphenyl-4-carbonyl)amino]-3-(3-trifluoromethylphenyl)acryloylamino]-3-(4-chlorophenyl)butyric acid] reads 87.8 µM. Still for that read-out and setting: the result for `O=C(N[C@@H](CSCc1ccccc1)C(=O)O)/C(=C\c1ccc(Cl)c(Cl)c1)NC(=O)C1CCN(c2nccc(C(F)(F)F)n2)CC1` [Compound 74, (R)-3-Benzylsulfanyl-2-(3-(3,4-dichlorophenyl)-2-{[1-(4-trifluoromethylpyrimidin-2-yl)piperidine-4-carbonyl]amino}acryloylamino)propionic acid] reads 33.8 µM. On the same count and under the same terms, the result for `O=C(N[C@H](COCc1ccccc1)C(=O)O)/C(=C\c1ccc(I)cc1)NC(=O)C1CCN(c2nccc(C(F)(F)F)n2)CC1` [Compound 75, (R)-3-Benzyloxy-2-(3-(4-iodophenyl)-2-{[1-(4-trifluoromethylpyrimidin-2-yl)-piperidine-4-carbonyl]amino}acryloylamino)propionic acid] reads 66.3 µM; that for `O=C(N[C@@H](CSCc1ccccc1)C(=O)O)/C(=C\c1ccc(I)cc1)NC(=O)C1CCN(c2nccc(C(F)(F)F)n2)CC1` [Compound 76, (R)-3-Benzylsulfanyl-2-(3-(4-iodophenyl)-2-{[1-(4-trifluoromethylpyrimidin-2-yl)-piperidine-4-carbonyl]amino}acryloylamino)propionic acid], 56.7 µM; that for `O=C(N[C@H](COCc1ccccc1)C(=O)O)/C(=C\c1cccc(C(F)(F)F)c1)NC(=O)C1CCN(c2nccc(C(F)(F)F)n2)CC1` [Compound 77, (R)-3-Benzyloxy-2-(3-(3-trifluoromethylphenyl)-2-{[1-(4-trifluoromethylpyrimidin-2-yl)-piperidine-4-carbonyl]amino}acryloylamino)propionic acid], 60 µM. `O=C(N[C@@H](CSCc1ccccc1)C(=O)O)/C(=C\c1cccc(C(F)(F)F)c1)NC(=O)C1CCN(c2nccc(C(F)(F)F)n2)CC1` [Compound 78, (R)-3-Benzylsulfanyl-2-(3-(3-trifluoromethylphenyl)-2-{[1-(4-trifluoromethylpyrimidin-2-yl)piperidine-4-carbonyl]amino}acryloylamino)propionic acid] gave an IC50 of 67.3 µM.

Molecule `O=C(N[C@H](COCc1ccccc1)C(=O)O)/C(=C\c1ccc(OC(F)(F)F)cc1)NC(=O)C1CCN(c2nccc(C(F)(F)F)n2)CC1` [Compound 83, (R)-3-Benzyloxy-2-(3-(4-trifluoromethoxyphenyl)-2-{[1-(4-trifluoromethyl-pyrimidin-2-yl)piperidine-4-carbonyl]amino}acryloylamino)propionic acid] registered an IC50 of 84.9 µM. As for `O=C(N[C@@H](CSCc1ccccc1)C(=O)O)/C(=C\c1ccc(OC(F)(F)F)cc1)NC(=O)C1CCN(c2nccc(C(F)(F)F)n2)CC1` [Compound 84, (R)-3-Benzylsulfanyl-2-(3-(4-trifluoromethoxyphenyl)-2-{[1-(4-trifluoromethyl-pyrimidin-2-yl)piperidine-4-carbonyl]amino}acryloylamino)propionic acid], half-maximal inhibition (IC50) required 57.8 µM. Same read-out and setting: the result for `O=C(NC(Cc1ccc(Cl)cc1)C(=O)O)/C(=C\c1cccc(C(F)(F)F)c1)NC(=O)c1ccc(-c2ccccc2)cc1` (stereo not shown) [Compound 97] reads 13 µM. Still for that read-out and setting: as for `O=C(NC(CCSCc1ccccc1)C(=O)O)/C(=C\c1cccc(C(F)(F)F)c1)NC(=O)c1ccc(-c2ccccc2)cc1` (stereo not shown) [Compound 98], the figure is 13 µM; as for `O=C(N[C@@H](CSCc1ccccc1)C(=O)O)/C(=C\c1ccc(Cl)cc1Cl)NC(=O)c1ccc(-c2ccccc2)cc1` [Compound 102], 40 µM. The same measure, in the same setting: the result for `O=C(NC(COCc1ccccc1)C(=O)O)/C(=C\c1ccc(Cl)cc1Cl)NC(=O)c1ccc(-c2ccccc2)cc1` (stereo not shown) [Compound 103] reads 18 µM; that for `O=C(N[C@@H](CSCc1ccccc1)C(=O)O)/C(=C\c1ccc(Cl)c(Cl)c1)NC(=O)c1ccc(-c2ccccc2)cc1` [Compound 105], 33 µM; that for `O=C(NC(COCc1ccccc1)C(=O)O)/C(=C\c1ccc(Cl)c(Cl)c1)NC(=O)c1ccc(-c2ccccc2)cc1` (stereo not shown) [Compound 106], 20 µM.

Turning to `O=C(N[C@@H](CSCc1ccccc1)C(=O)O)/C(=C\c1ccc(-c2ccccc2)cc1)NC(=O)c1ccc(C(F)(F)F)cc1` [Compound 121], the concentration for half-maximal inhibition (IC50) amounted to 25 µM. Molecule `O=C(NC(CCSCc1ccccc1)C(=O)O)/C(=C\c1ccc(-c2ccccc2)cc1)NC(=O)c1ccc(C(F)(F)F)cc1` (stereo not shown) [Compound 122] displayed a half-maximal inhibitory concentration (IC50) of 25 µM. Still for that read-out and setting: the result for `O=C(NC(COCc1ccccc1)C(=O)O)/C(=C\c1ccc(-c2ccccc2)cc1)NC(=O)c1ccc(C(F)(F)F)cc1` (stereo not shown) [Compound 133] reads 100 µM; that for `O=C(N[C@@H](CSCc1ccccc1)C(=O)O)/C(=C\c1ccc(Cl)c(Cl)c1)NC(=O)c1ccc(C(F)(F)F)cc1` [Compound 140], 48 µM. The same measure, in the same setting: the result for `O=C(N[C@@H](CSCc1ccccc1)C(=O)O)/C(=C\c1ccc(Cl)cc1Cl)NC(=O)c1ccc(C(F)(F)F)cc1` [Compound 154] reads 26.4 µM.
